Key:
[1] = biological target: CCR5 (Homo sapiens, UniProt P51681); assay: CCR5 receptor occupancy / RANTES-induced CCR5 internalization in PBMCs, flow cytometry; format: cell-based; settings: PBMCs
Method: The capacity of each drug to inhibit CCR5 or CCR2 internalization was evaluated. Cell-surface expression of CCR5 and CCR2 was assessed by flow cytometry, and fluorescence values were converted into molecules of equivalent soluble fluorescence (MESF).

[2] = Study 202 treatment-emergent laboratory abnormalities (DAIDS grade); format: in vivo, human
Description: The 12th subject (Subject 42001) had 2 consecutive CPK elevations (Grade 3 followed by Grade 4) that returned to normal values while continuing treatment at a subsequent visit. None of the CPK elevations were associated with clinical symptoms; no subjects discontinued due to CPK elevations and there were no differences in AEs related to musculoskeletal disorders between the CVC and EFV arms.
The number of subjects with graded treatment-emergent laboratory abnormalities in selected liver parameters of interest is shown in Table 34. No Grade 4 ALT or AST elevations were observed. Except for one Grade 3 AST elevation, all ALT and AST elevations were Grade 1 or Grade 2. […] All abnormalities in bilirubin were Grade 1 or Grade 2. […]

[3] = All CVC (N = 115), EFV (N = 28)
[4] = All CVC (N = 115), EFV (N = 28), through Week 48
[5] = CVC 100 mg (N = 38), through Week 48

Chain of CCR5 (P51681 whole entry): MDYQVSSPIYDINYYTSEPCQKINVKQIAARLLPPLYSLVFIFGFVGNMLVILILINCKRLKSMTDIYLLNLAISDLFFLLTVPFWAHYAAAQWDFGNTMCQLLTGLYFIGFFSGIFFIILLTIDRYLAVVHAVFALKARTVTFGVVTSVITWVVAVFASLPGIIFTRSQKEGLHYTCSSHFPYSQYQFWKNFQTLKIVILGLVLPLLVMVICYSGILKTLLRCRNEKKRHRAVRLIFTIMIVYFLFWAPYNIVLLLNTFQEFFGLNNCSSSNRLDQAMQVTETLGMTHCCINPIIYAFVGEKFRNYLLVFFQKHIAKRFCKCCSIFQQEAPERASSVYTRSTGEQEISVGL

CCCCOCCOc1ccc(-c2ccc3c(c2)/C=C(/C(=O)Nc2ccc([S@@+]([O-])Cc4cncn4CCC)cc2)CCCN3CC(C)C)cc1 [CVC, (S)-8-[4-(2-Butoxyethoxy)phenyl]-1-isobutyl-N-(4-{[(1-propyl-1H-imidazol-5-yl)methyl]sulfinyl}phenyl)-1,2,3,4-tetrahydro-1-benzazocine-5-carboxamide]
prevention of RANTES-induced CCR5 internalization [1]: at lower effective concentrations than MVC
Any graded (Grade 1-4) laboratory abnormality, % ([2]; All CVC): 92%
Worst Grade 1 laboratory abnormality, % ([2]; All CVC): 32%
Worst Grade 2 laboratory abnormality, % ([2]; All CVC): 43%
Worst Grade 3 laboratory abnormality, % ([2]; All CVC): 11%
Worst Grade 4 laboratory abnormality, % ([2]; All CVC): 5%
ALT abnormality, worst Grade 1 [2, 3]: 10 (9%) n (%)
ALT abnormality, worst Grade 2 [2, 3]: 5 (4%) n (%)
ALT abnormality, worst Grade 3 [2, 3]: 0 n (%)
ALT abnormality, worst Grade 4 [2, 3]: 0 n (%)
AST abnormality, worst Grade 1 [2, 3]: 14 (12%) n (%)
AST abnormality, worst Grade 2 [2, 3]: 6 (5%) n (%)
AST abnormality, worst Grade 3 [2, 3]: 1 (< %) n (%)
AST abnormality, worst Grade 4 [2, 3]: 0 n (%)
Alanine aminotransferase (ALT) abnormality, any worst grade [2, 3]: 15 (13%) n (%)
Aspartate aminotransferase (AST) abnormality, any worst grade [2, 3]: 21 (18%) n (%)
Bilirubin abnormality, any worst grade [2, 3]: 7 (6%) n (%)
Bilirubin abnormality, worst Grade 1 [2, 3]: 3 (3%) n (%)
Bilirubin abnormality, worst Grade 2 [2, 3]: 4 (3%) n (%)
Bilirubin abnormality, worst Grade 3 [2, 3]: 0 n (%)
Bilirubin abnormality, worst Grade 4 [2, 3]: 0 n (%)
AST increased, Grade 3 [2, 4]: 1 (<1%) n (%)
AST increased, Grade 4 [2, 4]: 0 n (%)
Any Grade 3 laboratory abnormality [2, 4]: 13 (11%) n (%)
Any Grade 3 or Grade 4 laboratory abnormality [2, 4]: 19 (17%) n (%)
Any Grade 4 laboratory abnormality [2, 4]: 6 (5%) n (%)
Aspartate aminotransferase (AST) increased (Grade 3 or 4) [2, 4]: 1 (<1%) n (%)
CPK increased, Grade 3 [2, 4]: 8 (7%) n (%)
CPK increased, Grade 4 [2, 4]: 4 (3%) n (%)
Creatine phosphokinase (CPK) increased (Grade 3 or 4) [2, 4]: 12 (10%) n (%)
Fibrinogen decreased (Grade 3 or 4) [2, 4]: 2 (2%) n (%)
Fibrinogen decreased, Grade 3 [2, 4]: 2 (2%) n (%)
Fibrinogen decreased, Grade 4 [2, 4]: 0 n (%)
Hemoglobin decreased (Grade 3 or 4) [2, 4]: 1 (<1%) n (%)
Hemoglobin decreased, Grade 3 [2, 4]: 0 n (%)
Hemoglobin decreased, Grade 4 [2, 4]: 1 (<1%) n (%)
Neutrophils decreased (Grade 3 or 4) [2, 4]: 2 (2%) n (%)
Neutrophils decreased, Grade 3 [2, 4]: 2 (2%) n (%)
Neutrophils decreased, Grade 4 [2, 4]: 0 n (%)
Phosphate decreased (Grade 3 or 4) [2, 4]: 4 (3%) n (%)
Phosphate decreased, Grade 3 [2, 4]: 4 (3%) n (%)
Phosphate decreased, Grade 4 [2, 4]: 0 n (%)
Any graded (Grade 1-4) laboratory abnormality, % ([2]; CVC 100 mg): 88%
Worst Grade 1 laboratory abnormality, % ([2]; CVC 100 mg): 36%
Worst Grade 2 laboratory abnormality, % ([2]; CVC 100 mg): 40%
Worst Grade 3 laboratory abnormality, % ([2]; CVC 100 mg): 7%
Worst Grade 4 laboratory abnormality, % ([2]; CVC 100 mg): 5%
AST increased, Grade 4 [2, 5]: 0 n (%)
Any Grade 3 or Grade 4 laboratory abnormality [2, 5]: 7 (12%) n (%)
Any Grade 4 laboratory abnormality [2, 5]: 3 (5%) n (%)
Aspartate aminotransferase (AST) increased (Grade 3 or 4) [2, 5]: 1 (2%) n (%)
CPK increased, Grade 4 [2, 5]: 1 (2%) n (%)
Creatine phosphokinase (CPK) increased (Grade 3 or 4) [2, 5]: 3 (5%) n (%)
Fibrinogen decreased (Grade 3 or 4) [2, 5]: 0 n (%)
Fibrinogen decreased, Grade 3 [2, 5]: 0 n (%)
Fibrinogen decreased, Grade 4 [2, 5]: 0 n (%)
Hemoglobin decreased (Grade 3 or 4) [2, 5]: 1 (2%) n (%)
Hemoglobin decreased, Grade 3 [2, 5]: 0 n (%)
Hemoglobin decreased, Grade 4 [2, 5]: 1 (2%) n (%)
Neutrophils decreased (Grade 3 or 4) [2, 5]: 2 (3%) n (%)
Neutrophils decreased, Grade 3 [2, 5]: 2 (3%) n (%)
Neutrophils decreased, Grade 4 [2, 5]: 0 n (%)
Phosphate decreased (Grade 3 or 4) [2, 5]: 2 (3%) n (%)
Phosphate decreased, Grade 3 [2, 5]: 2 (3%) n (%)
Phosphate decreased, Grade 4 [2, 5]: 0 n (%)
ALT abnormality, worst Grade 1 ([2]; CVC 100 mg (N = 58)): 4 (7%) n (%)
ALT abnormality, worst Grade 2 ([2]; CVC 100 mg (N = 58)): 3 (5%) n (%)

From patent publication US20200368247A1, “CENICRIVIROC FOR THE TREATMENT OF FIBROSIS” (Tobira Therapeutics, Inc., priority 2014, published 2020)
